Oligonucleotides are written 5' to 3', each unit as a sugar letter and its base; * is a phosphorothioate linkage, no mark a phosphodiester; rarer units and linkages stand in square brackets, end groups in braces. Plain capitals give the bases only. d = 2'-deoxy (DNA)
Key:
[1] = tested on: human neutrophils (PMNLs), 5-LOX product synthesis; assay: 5-LOX metabolite synthesis in human neutrophils stimulated with opsonized S. typhimurium (HPLC); type: cell-based
Experimental: Figure 1 Effects of LRR11 and ODNs on the formation of LTB4 (A,B) and the sum of 5-LOX metabolites (ω-OH-LTB4, LTB4 and its isomers, and 5-HETE) (C) in human PMNLs. PMNLs (2 × 10^7) were incubated for 15 min at 37 °C without (black bars) or with 1 μM LRR11 (A, LRR11_first); then ODNs and LRR11 or LPS were added; various ways of adding ODN and LRR11 peptide are indicated. In control samples, Hanks’ solution was added instead of ODNs. After 20 min, 0.5 × 10^9 S. typhimurium bacterial cells were added for a further 15 min. The 5-LOX products were determined using HPLC. Values indicate mean ± SEM of five independent experiments performed in duplicate. * p < 0.05, ** p < 0.01, *** p < 0.005, compared with the control. # p < 0.05, ## p < 0.01 for pairs of data compared as indicated by two-way ANOVA followed by Tukey’s multiple comparison test.
Figure 3 Synthesis of the 5-LOX metabolites in PMNLs exposed to opsonized S. typhimurium bacteria in the presence of the RAGE antagonist FPS-ZM1. PMNLs (2 × 10^7) were incubated for 15 min at 37 °C without additives or with 0.15 µM FPS-ZM1, for the next 20 min the mixture was incubated with 1 µM ODNs without (black bars) or with 1 µM LRR11 (gray bars) before adding 5 × 10^8 S. typhimurium for 15 min. In control samples, Hanks’ solution was added instead of ODNs. The 5-LOX products were determined using HPLC. Graphical data are presented for LTB4 (A) or the sum of LTB4 and its isomers, ω-OH-LTB4 and 5-HETE, designed as Σ5LOX products (B).
Human neutrophils were isolated from freshly taken citrate-anticoagulated peripheral blood from healthy individuals using standard methods. Leukocyte-rich plasma was prepared by sedimentation of erythrocytes with 3% dextran T-500 at room temperature. For purification of granulocytes, centrifugation through Ficoll-Paque (density 1.077 g/mL) was used, followed by hypotonic lysis of the remaining erythrocytes. […] All methods were performed in accordance with the relevant instructions and regulations of the Ministry of Health of the Russian Federation and local legislation.
Bacteria (S. typhimurium IE 147 strain) obtained from the Collection of Gamaleya National Research Center of Epidemiology and Microbiology (Moscow, Russia) were grown in Luria–Bertani broth to a concentration of 1 × 10^9 colony-forming units (CFU)/mL. The bacteria were collected by centrifugation at 2000 g and opsonized immediately before the experiment for 30 min in 20% (v/v) fresh serum from the same donor whose blood was used to isolate neutrophils. Repeated centrifugation in Dulbecco’s solution was used to wash the bacteria.
The cell suspension (2 × 10^7 PMNLs in HBSS/HEPES, reaction volume of 6 mL) was cultured for 15 min in an incubator at 37 °C, 5% CO2. Then 1.0 µM ODN with or without 1.0 µM LRR11, or 2 µg/mL LPS, was added as indicated. After 20 min, the cells were stimulated with S. typhimurium (the ratio of bacteria to PMNLs was approximately 20:1) for the next 15 min [3]. The synthesis of 5-LOX metabolites was stopped by adding an equal volume of methanol at −20 °C with prostaglandin B2 as an internal standard. Samples were stored at −20 °C. The denatured cell suspension was centrifuged, and supernatants designated as water/methanol extracts.
(§1) To purify the water/methanol extracts, solid-phase extraction was used on Sep-Pak C18 cartridges (500 mg; Macherey-Nagel, Dueren, Germany), which were conditioned first with methanol, and then with water. Major 5-LOX metabolites were identified by comparing retention times with those of known compounds, as previously described.
Table S1. Effect of Chloroquine on 5-LOX product formation in PMNLs after ODN priming followed by the addition
of opsonized S. typhimurium bacteria.

[2] = tested on: TLR9 signaling; settings: ref [25]; cited from earlier work
[3] = tested on: human neutrophils (PMNLs), 5-LOX product synthesis; parameters: method as in PMID 27036535; settings: ref [3]; cited from earlier work
[4] = tested on: telomeric G-quadruplex DNA; settings: ref [42]; cited from earlier work
Excerpt: (§2) LRR11, like LL-37, belongs to the group of cationic antimicrobial peptides, which are characterized by high content of hydrophobic residues (~40%) and overall positive charge due to the increased content of Arg and Lys residues. They block many functions of LPS [39, 40], interact with intracellular DNA, and mediate DNA uptake and transport in mammalian cells.

[5] = tested on: cells, CpG-ODN delivery; settings: ref [43],[44]; cited from earlier work
Excerpt: as §2

[6] = tested on: vascular smooth muscle cells; settings: ref [56]; cited from earlier work
Excerpt: RAGE is shown to bind molecules, known as damage-associated molecular patterns (DAMPs), released by cells that die or are under conditions of inflammation.

[7] = tested on: PMNLs; assay: Phagocytosis of FITC-labeled S. typhimurium by neutrophils; type: cell-based, human; settings: 1 µM ODN +/- 1 µM LRR11, FITC-labeled S. typhimurium 20 min; n = 3; Figure S2b
Experimental: Figure S2b. Influence of LRR11 and ODNs on phagocytic activity of neutrophils. PMNLs supplemented with 1 µM ODN +/- 1 µM LRR11, except for control samples containing HBSS/HEPES instead of ODNs, were incubated for 20 min in Eppendorf tubes at 37 °C in 5% CO2 with continuous stirring. FITC-labeled S. typhimurium were then added for next 20 min, followed by FACS analysis (excitation: 488 nm, emission: 525 nm). Both the relative amounts of PMNLs involved in phagocytosis (A, B) and the fluorescence intensities, reflecting the average number of bacteria captured per cell (C, D), were estimated. To distinguish between internalized and surface-bound bacterial cells, trypan blue at a working concentration of 1 mg/ml, was used to quench the surface FITC fluorescence caused by the attached bacteria. Thus, each series of samples was duplicated to obtain results both without (A, C) and with (B, D) TB quenching, which corresponds to the total interaction and uptake of bacteria. Averaged flow cytometry data are presented, including means ± SEM for the percentages of FITC-positive (i.e., phagocytic) cells (A, B), and mean ± SEM for fluorescence intensities of FITC-positive subpopulations (C, D) (n=3; * p < 0.05; ** p < 0.01 in comparison with corresponding controls, ns – non significant, as indicated by two-way ANOVA followed by Dunnett’s or Tukey’s multiple comparison tests). […]

[8] = tested on: human neutrophils (PMNLs); assay: Binding and uptake of FAM-labeled ODNs by neutrophils (flow cytometry); type: cell-based; settings: 0.15 µM FPS-ZM1, 15 min, then 1 µM FAM-ODN 20 min; n = 3; Figure 7
Experimental: Figure 6 The LRR11 peptide affects the binding and uptake of ODNs by neutrophilic granulocytes. PMNLs (1 × 10^6/mL) in HBSS/HEPES were incubated for 20 min at 37 °C in 5% CO2 with 1 µM FAM-labeled ODN, supplemented or not with 1 µM LRR11 peptide. Both the total ODN accumulation (red) and its intracellular constituent (black) were analyzed by flow cytometry. Surface fluorescence was quenched by trypan blue (TB) solution. Values represent the means ± SEM of FAM fluorescence intensities (RFU, relative fluorescence units) (n = 8). ** p < 0.01; *** p < 0.005, **** p < 0.001 for specified data pairs, as indicated by two-way ANOVA followed by Tukey’s multiple comparison test. Mean fluorescence intensities of unstained PMNLs were 62 ± 12 and 39 ± 5.6 without or after TB quenching, respectively.
Figure 7 RAGE antagonist effect on oligonucleotide penetration into neutrophil cells. […] Both total oligonucleotide accumulation (A) and its intracellular constituent (B) were analyzed by flow cytometry. The surface fluorescence was quenched by trypan blue solution. Values represent the means ± SEM of FAM fluorescence intensities (RFU) (n = 3). * p < 0.05; […]; *** p < 0.005 for the pair of data specified, as indicated by two-way ANOVA followed by Tukey’s multiple comparison test. Fluorescence intensities of unstained controls were 62 ± 14 and 49 ± 6 without, or after TB quenching, respectively. […]

[9] = tested on: PMNLs, 5-LOX product formation; assay: 5-LOX product formation in PMNLs stimulated by calcium ionophore A23187; type: cell-based, human
Experimental: Human neutrophils were isolated from freshly taken citrate-anticoagulated peripheral blood from healthy individuals using standard methods. Leukocyte-rich plasma was prepared by sedimentation of erythrocytes with 3% dextran T-500 at room temperature. For purification of granulocytes, centrifugation through Ficoll-Paque (density 1.077 g/mL) was used, followed by hypotonic lysis of the remaining erythrocytes. PMNLs were washed twice in PBS, resuspended at 10^7 cells/mL (96–97% purity, 98–99% viability) in Dulbecco’s PBS containing 1 mg/mL glucose (no CaCl2) and stored at room temperature. All methods were performed in accordance with the relevant instructions and regulations of the Ministry of Health of the Russian Federation and local legislation.
as §1

Q: What does the source list for `CCN(CC)CCCC(C)Nc1ccnc2cc(Cl)ccc12` (centres unmarked) [Chloroquine]?
A: effect of chloroquine on CpG-ODN action on 5-LOX products ([1]; 5 µM Chloroquine, B- and C-class CpG-ODNs, Table S1): the effects of B- and C-class CpG-ODNs were not sensitive to chloroquine; Σ 5-LOX metabolites ([1]; Table S1, 2×10^7 PMNLs, 15 min at 37 °C without or with 5 µM Chloroquine, then ODN, after 20 min 0.5×10^9 opsonized S. typhimurium for 15 min, mean ± SEM, three independent experiments): 19.8 ± 2.7 ng/107 PMNLs; inhibition of CpG-ODN–induced cell activation [2]: known to inhibit CpG-ODN–induced cell activation; effect of chloroquine on inhibition of 5-LOX product formation by ODN 2216 [3]: abrogated by chloroquine

Q: What does the source list for LL-37?
A: complex with telomeric G-quadruplex DNA [4]: forms a complex with telomeric G-quadruplex DNA; delivery of bacterial CpG-ODNs to cells [5]: promotes the rapid delivery of bacterial CpG-ODNs to cells

Q: For `CCCCC/C=C\C[C@@H](O)/C=C/C=C/C=C\[C@@H](O)CCCC(=O)O` [LTB4, leukotriene B4, reference compound], which “RAGE expression / LTB4 production in vascular smooth muscle cells” value [6] is on record?
A: increases RAGE expression in proliferating human vascular smooth muscle cells

Q: With “5′-ggTTAGGGTTAGGGTTAGGGTTAGGGggggg-3′ (DNA dG*dG*dTdTdAdGdGdGdTdTdAdGdGdGdTdTdAdGdGdGdTdTdAdGdGdGdG*dG*dG*dG*dG) [G-rich ODN, G-rich ODN containing human telomeric tandem repeats]” as the compound, how does the “effect on bacteria engulfment” value [7] read?
A: only G-rich ODN facilitated the bacteria engulfment

Q: And the “effect on 5-LOX activity / leukotriene synthesis” value ([1]; ODN alone, 1 µM, 20 min, then opsonized S. typhimurium 15 min, Figure 1, five independent experiments in duplicate)?
A: increased leukotriene synthesis

Q: What does the source list for `O=C(c1ccc(Cl)cc1)N(Cc1ccccc1)C1CCCCC1` [FPS-ZM1]?
A: effect of RAGE antagonist on ODN internalization [8]: suppressed ODN internalization; effect of FPS-ZM1 on 5-LOX product formation stimulated by bacterial phagocytosis ([1]; 0.15 µM FPS-ZM1, S. typhimurium, Figure 3): inhibited the 5-LOX product formation stimulated by bacterial phagocytosis; effect of FPS-ZM1 on ODN effects on leukotriene synthesis ([1]; 150 nM FPS-ZM1, 15 min before 1 µM ODNs, Figure 3, four independent experiments): strongly reduce the effects of ODNs on leukotriene synthesis; Σ 5-LOX metabolites ([9]; 150 nM FPS-ZM1 30 min at 37 °C, then 1 µM A23187 10 min, mean ± SEM, three independent experiments): 438 ± 42 ng/10^7 PMNLs; effect of FPS-ZM1 on A23187-induced leukotriene synthesis ([9]; 150 nM FPS-ZM1, 1 µM A23187): did not affect the leukotriene synthesis induced by the calcium ionophore A23187

— article PMC7961786, “Magic Peptide: Unique Properties of the LRR11 Peptide in the Activation of Leukotriene Synthesis in Human Neutrophils” (International Journal of Molecular Sciences, 2021)
